Measurements published in patent US20230250095A1, “BENZIMIDAZOLE DERIVATIVES, PREPARATION METHOD THEREFOR AND MEDICAL USE THEREOF” (TUOJIE BIOTECH(SHANGHAI) CO., LTD., priority 2020, published 2023).
Read-outs that look alike come from different tables or passages of the source.

Columns and labels:
CYP2C19 = molecular target: T1, CYP2C19 (Homo sapiens, UniProt P33261); experiment: CYP inhibition assay in pooled human liver microsomes (S-mephenytoin); assay type: in vitro ADME
T1 construct: 150-donor pooled human liver microsomes (purchased from Corning, Cat. No. 452117); tissue Corning 452117; host or cells: 150-donor pooled human liver microsomes
Experimental: (§1) The metabolic reactions of representative substrates of 5 major human CYP subtypes (CYP1A2, CYP2C9, CYP2C19, CYP2D6, CYP3A4/5) were evaluated using 150-donor pooled human liver microsomes (purchased from Corning, Cat. No. 452117). The effects of different concentrations of the test compounds on the metabolic reactions of phenacetin (CYP1A2), diclofenac sodium (CYP2C9), S-mephenytoin (CYP2C19), bufuralol hydrochloride (CYP2D6) and midazolam (CYP3A4/5) were determined by liquid chromatography-tandem mass spectrometry (LC/MS/MS).
(§2) 30 μM phenacetin, 10 μM diclofenac sodium, 35 μM S-mephenytoin, 5 μM bufuralol hydrochloride, 3 μM midazolam, 1 mM NADPH, and test compounds (at concentrations of 0.1 μmol/L, 0.3 μmol/L, 1 μmol/L, 3 μmol/L, 10 μmol/L, and 30 μmol/L, respectively) or positive compound or blank were incubated with 200 μL of a reaction system of pooled human liver microsomes (0.2 mg/mL) (100 mmol/L phosphate buffer, pH 7.4, containing 0.3% by volume of DMSO, 0.6% by volume of acetonitrile, and 0.1% by volume of methanol) at 37° C. for 5 min. Then, 200 μL of acetonitrile containing 3% formic acid and 40 nM internal standard verapamil was added, and the mixture was centrifuged at 4000 rpm for 50 min. The mixture was cooled on ice for 20 min and centrifuged at 4000 rpm for 20 min to precipitate the protein. 200 μL of the supernatant was analyzed by LC/MS/MS.
(§3) The peak area was calculated from the chromatogram. The residual activity rate (%) was calculated by the following formula:
(§4) peak area rate=peak area of metabolite/peak area of internal standard
(§5) residual activity rate (%)=peak area proportion of the test compound group/peak area proportion of the blank group
(§6) The half maximal inhibitory concentrations (IC50) against CYP were calculated by Excel XLfit 5.3.1.3.

hP2X3 = molecular target: T2, hP2X3 (Homo sapiens, UniProt P56373); experiment: FLIPR calcium flux assay, antagonistic activity against hP2X3 receptor; assay type: cell-based; conditions: 1321N1/hP2X3 cells, agonist α,β-meATP 500 nM
T2 construct: host or cells: 1321N1 cells
T2 sequence (P56373 1-397): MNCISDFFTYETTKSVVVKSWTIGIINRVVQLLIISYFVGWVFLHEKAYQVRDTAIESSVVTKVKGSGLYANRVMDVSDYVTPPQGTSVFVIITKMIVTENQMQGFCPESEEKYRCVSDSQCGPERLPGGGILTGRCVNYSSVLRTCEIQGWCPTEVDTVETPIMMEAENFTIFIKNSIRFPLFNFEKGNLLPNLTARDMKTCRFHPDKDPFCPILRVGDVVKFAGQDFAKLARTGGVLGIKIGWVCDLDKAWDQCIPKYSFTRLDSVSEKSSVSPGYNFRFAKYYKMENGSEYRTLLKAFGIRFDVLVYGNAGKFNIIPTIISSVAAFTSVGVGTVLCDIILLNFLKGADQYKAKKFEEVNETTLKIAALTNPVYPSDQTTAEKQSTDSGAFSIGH
Experimental: The compounds were screened for antagonistic activity against hP2X3 and hP2X2/3 receptors (changes in calcium flux signals represent the effect of the compounds on ion channels) by an FLIPR assay.
1321N1 cells (adherent cells) stably transfected with hP2X3 and hP2X2/3 receptors were digested, centrifuged, resuspended in a plating medium (DMEM+10% DFBS) and counted, adjusted to 2×10^5 cells/mL. The cells were seeded in a 384-well assay plate at 50 μL/well, and incubated in an incubator at 37° C. with 5% CO2 for 16-24 h. Test compounds (20 mM DMSO stock solution) that were 180 times the desired concentration were prepared with DMSO, and added to a 384-well compound plate at 500 nL/well. Then, each well was supplemented with 30 μL of FLIPR buffer (lx HBSS containing 1.26 mM Ca^2++2 mM CaCl2)+20 mM HEPES), and the mixture was shaken for 20-40 min to be mixed well. The agonist α,β-meATP (final concentration of 500 nM for hP2X3 cells and final concentration of 1000 nM for hP2X2/3 cells) that was 3 times the desired concentration was prepared with an FLIPR buffer, and added to another 384-well compound plate at 35 μL/well. The cell plate in which cells had been plated and cultured for 16-24 h was taken out, and the cell supernatant was removed by pipetting. 30 μL of dye (FLIPR® calcium 4 assay kit, diluted with an FLIPR buffer) was added to each well, and the plate was incubated for 1 h. 15 μL of the compound was added to each well containing cells (dosing using an FLIPR instrument), and after 15 min, 22.5 μL of agonist was added to each well and the fluorescent signal was detected (excitation wavelength: 470-495 nm, emission wavelength: 515-575 nm). With the difference between the peak and the trough of the signal taken as the basic data, the data of the highest concentration of the positive drug taken as the 100% inhibition rate, and the data of DMSO taken as the 0% inhibition rate, the inhibition effect curves of the compounds were fitted on the software Graphpad Prism 6 and IC50 values were calculated.

CYP2D6 = molecular target: T3, CYP2D6 (Homo sapiens, UniProt P10635); experiment: CYP inhibition assay in pooled human liver microsomes (bufuralol hydrochloride); assay type: in vitro ADME; conditions: human liver microsomes 0.2 mg/mL, substrate bufuralol hydrochloride; read-out: CYP 2D6 (μM) IC50
T3 construct: 150-donor pooled human liver microsomes (purchased from Corning, Cat. No. 452117); tissue Corning 452117; host or cells: 150-donor pooled human liver microsomes
Experimental: as §1, §2, §3, §4, §5, §6

[1] = In vitro metabolic stability in human hepatocytes; assay type: in vitro ADME; conditions: human hepatocytes 1×10^6 cells/mL, 37° C., up to 120 min; read-out: Intrinsic clearance (uL/min/10^6 cells)
Experimental: The concentrations of the test compounds in the reaction system were determined by LC/MS/MS, so that the intrinsic clearance of the test compounds was calculated, and the in vitro metabolic stability in human hepatocytes was evaluated.
247.5 μL of a mixed solution of human hepatocytes at 1×10^6 cells/mL (purchased from BioreclamationIVT, Cat. No. S01205) and 2.5 μL of 100 μM test compound or positive control was added to a plate to initiate the reaction. The plate was incubated at 37° C. and 600 rpm. 20 μL of incubation system was transferred to a stop plate at 0.5 min, 5 min, 15 min, 30 min, 45 min, 60 min, 80 min, 100 min and 120 min. Then, the mixture was vortexed for 2 min to be mixed well. The stop plate was centrifuged at 4000 rpm for 20 min. 40 μL of supernatant of each compound was transferred to a 96-well sample template, after which 160 μL of pure water was added to dilute the samples.
The resulting samples were quantified from ion chromatogram. The residual rate was calculated from the peak area of the test compound or the positive control. Slope k was determined by linear regression of the […] of residual rates versus incubation time using Microsoft Excel.
Intrinsic clearance (in vitro CLint, μL/min/10^6 cells) was calculated from the slope value according to the following equation:
V=incubation volume (0.25 mL);
N=number of cells per well (0.25×10^6 cells)

[2] = human liver microsomes 0.2 mg/mL, substrate S-mephenytoin, read-out: CYP 2C19 (μM) IC50

T1 sequence (P33261 whole entry): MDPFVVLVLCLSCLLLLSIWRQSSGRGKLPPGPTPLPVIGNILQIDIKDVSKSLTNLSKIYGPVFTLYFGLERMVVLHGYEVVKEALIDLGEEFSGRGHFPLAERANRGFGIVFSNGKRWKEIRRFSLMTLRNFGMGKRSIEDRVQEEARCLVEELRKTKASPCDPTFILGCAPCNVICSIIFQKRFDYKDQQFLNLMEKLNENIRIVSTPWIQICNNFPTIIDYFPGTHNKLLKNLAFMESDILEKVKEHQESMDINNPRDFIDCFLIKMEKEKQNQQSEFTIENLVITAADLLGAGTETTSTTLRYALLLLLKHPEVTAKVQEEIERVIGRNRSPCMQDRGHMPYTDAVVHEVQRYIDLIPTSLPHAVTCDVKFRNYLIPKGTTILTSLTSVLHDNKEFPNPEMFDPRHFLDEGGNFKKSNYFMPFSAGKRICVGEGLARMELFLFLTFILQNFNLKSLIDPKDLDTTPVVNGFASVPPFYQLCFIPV
T3 sequence (P10635 whole entry): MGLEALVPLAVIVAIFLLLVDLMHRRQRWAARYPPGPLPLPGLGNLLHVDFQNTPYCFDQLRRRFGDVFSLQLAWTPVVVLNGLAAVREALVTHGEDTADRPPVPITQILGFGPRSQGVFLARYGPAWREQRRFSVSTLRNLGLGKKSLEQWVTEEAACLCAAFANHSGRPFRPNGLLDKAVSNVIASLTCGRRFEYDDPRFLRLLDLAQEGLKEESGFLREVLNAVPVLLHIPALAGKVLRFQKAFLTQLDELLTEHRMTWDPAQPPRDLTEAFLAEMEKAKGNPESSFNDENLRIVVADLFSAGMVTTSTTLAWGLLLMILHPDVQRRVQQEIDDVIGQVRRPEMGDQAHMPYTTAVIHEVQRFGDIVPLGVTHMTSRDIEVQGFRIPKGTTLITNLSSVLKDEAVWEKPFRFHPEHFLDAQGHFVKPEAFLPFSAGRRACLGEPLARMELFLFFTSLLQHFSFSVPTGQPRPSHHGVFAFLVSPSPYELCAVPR

IC50 (CYP2C19; [2]) [µM] | IC50 (hP2X3) [µM] | IC50 (CYP2D6) [µM] | hepatocyte CLint at 1 μM [1] [µL/min/1e6 cells] | Compound | IC50 (CYP2C19) [µM]
13 | 0.0368 | > 30 | < 1 | CC(=O)N1CCOC(Cn2c(-c3c(F)cc(N4CCCC4=O)cc3F)nc3cc(C)ccc32)C1 (stereo in doubt) [Compound 1] | 
14.6 | 0.105 | > 30 | 2.98 | COC(=O)N1CCOC(Cn2c(-c3c(F)cc(N4CCCC4=O)cc3F)nc3cc(C)ccc32)C1 (stereo not shown) [Compound 2, Methyl 2-((2-(2,6-difluoro-4-(2-carbonylpyrrolidin-1-yl)phenyl)-5-methyl-1H-benzo[d]imidazol-1-yl)methyl)morpholine-4-carboxylate] | 
> 30 | 0.0412 | > 30 | 4.08 | CC(=O)N1CCO[C@@H](Cn2c(-c3ccc(N4CCCC4=O)cc3Cl)nc3cc(C)ccc32)C1 [Compound 3, (S)-1-(4-(1-((4-acetylmorpholin-2-yl)methyl)-5-methyl-1H-benzo[d]imidazol-2-yl)-3-chlorophenyl)pyrrolidin-2-one] | 
> 30 | 0.0316 | > 30 | < 1 | CC(=O)N1CCO[C@@H](Cn2c(-c3c(F)cc(N4CCCC4=O)cc3Cl)nc3cc(C)ccc32)C1 [Compound 4, (S)-1-(4-(1-((4-acetylmorpholin-2-yl)methyl)-5-methyl-1H-benzo[d]imidazol-2-yl)-3-chloro-5-fluorophenyl)pyrrolidin-2-one] | 
> 30 | 0.0541 | > 30 | < 1 | CC(=O)N1CCO[C@@H](Cn2c(-c3c(F)cc(N4CCCC4=O)cc3F)nc3cc(Cl)ccc32)C1 [Compound 10, (S)-1-(4-(1-((4-acetylmorpholin-2-yl)methyl)-5-chloro-1H-benzo[d]imidazol-2-yl)-3,5-difluorophenyl)pyrrolidin-2-one] | 
> 30 | 0.033 | > 30 | < 1 | [2H]C([2H])([2H])c1ccc2c(c1)nc(-c1c(F)cc(N3CCCC3=O)cc1F)n2C[C@H]1CN(C(C)=O)CCO1 [Compound 14, (S)-1-(4-(1-((4-acetylmorpholin-2-yl)methyl)-5-(methyl-d3)-1H-benzo[d]imidazol-2-yl)-3,5-difluorophenyl)pyrrolidin-2-one] | 

Compound | IC50 (CYP2C19; [2]) [µM] | IC50 (hP2X3) [µM] | IC50 (CYP2D6) [µM] | hepatocyte CLint at 1 μM [1] [µL/min/1e6 cells] | IC50 (CYP2C19) [µM]
COC(=O)N1CCO[C@@H](Cc2c(-c3c(F)cc(N4CCCC4=O)cc3F)nc3cc(C)ccn23)C1 [Compound 9, Methyl (S)-2-((2-(2,6-difluoro-4-(2-carbonylpyrrolidin-1-yl)phenyl)-7-methylimidazo[1,2-a]pyridin-3-yl)methyl)morpholine-4-carboxylate] |  | 0.0758 | > 30 | 3.86 | 12.9
